The structures appear in SMILES notation.

Assay [1] relates to fetal hemoglobin gene expression (HBG1) in human erythroid progenitor cells. The assay can be described thus: Humanized mouse model: fetal hemoglobin mRNA (HBG1, HBB) in bone marrow by Nanostring. The class given is in vivo, NBSGW mice reconstituted with human CD34+ cells. Particulars: humanized mouse model, human erythroid progenitor cells, dose not given at this place. The text has this:
(§1) Results: To evaluate induction of target cell activity in the bone marrow, a humanized mouse model was developed. This model entails the reconstitution of human hematopoietic progenitor cells within the bone marrow of immunodeficient nonirradiated NOD.Cg-KitW-41J Tyr^+ Prkdc^scid Il2rg^tmlwjl/ThomJ (NBSGW) strain recipient mice. These mice are competent to engraft and differentiate human erythroid progenitor cells that express human adult hemoglobin mRNA and protein subunits within bone marrow.
(§2) Based on these exposure results, humanized mice were treated with either the clinical standard of care compound, hydroxyurea (50 mg/kg; bid), or I-73, at 25 and 100 mg/kg (bid), by oral gavage over a three-week period. At the end of the treatment period, bone marrow was harvested for flow cytometry, as well as for assessment of HbF protein and fetal hemoglobin (HBG1) mRNA levels. Levels of both HbF protein and HBG1 mRNA were normalized to the percentage of human erythroid progenitor cells in the bone marrow of each mouse as determined by immunofluorescence staining for human Glycophorin A cell membrane expression. […] In addition, relative levels of fetal hemoglobin to those of potentially sickling-prone adult hemoglobin (HBB) was assessed.
(§3) Female, 6-week-old NOD.Cg-Kit^W-41J Tyr^+ Prkdc^scid Il2rg^tm1Wjl/ThomJ (NBSGW) mice (Jackson Laboratory strain #[…]) were used for these studies. The mice were acclimatized to laboratory conditions for 5 days prior to inoculation.
(§4) GCSF-mobilized human CD34+ cells were removed from liquid nitrogen storage, thawed in a 37° C. water bath and transferred quickly into a 50 mL conical tube. Cryovial was rinsed once with thaw buffer, 0.1% BSA in phosphate buffered saline (PBS), and buffer was transferred and combined with the original contents in the 50 mL conical tube. Next, doubling volumes of thaw buffer was added to the conical and gently swirled for ˜30 seconds to one minute until the volume in the conical was 32 mL. Cells and buffer were centrifuged at 300G for 8 minutes, and the supernatants were aspirated. Cells were counted by resuspending in 1 mL of thawing buffer per million of cells to a target concentration range of 0.5 to 2M/ml and counting with AOPI (1:1) on a luna cell counter to confirm the concentration of cells/mL. The cell concentration was adjusted to 3×10^6 cells/ml. For each mouse, 300 thousand cells in 0.1 ml were injected into the tail vein with a 25-gauge needle.
(§5) On day 56 after human cell adoptive transfer, whole blood was collected from each mouse by submandibular bleed and a 100 μL sample of EDTA whole blood was transferred to a 2 ml tube containing 1.8 mL ACK Lysing Buffer at room temperature (RT), and then inverted to mix. Samples were incubated at RT for 15 min in the dark to lyse. After lysis, samples are centrifuged at 500×g for 5 minutes at RT to enable supernatant decanting. Remaining cells were washed with 1 mL of PBS-0.5% BSA and centrifuged at 500×g for 5 minutes at 4° C. Supernatant was decanted and cells were stained with leukocyte markers (human and mouse CD45 antibodies; BD347464, BD557659) to confirm human cell engraftment. Mice having less than one percent, or greater than ten percent, human CD45 positive cells were excluded from the subsequent study. Remaining mice were then randomized into treatment groups based on percentage of human cell engraftment. Each treatment group included 10-11 mice.
(§6) Compound I-73 was dissolved in a 5% Cremophor RH40, 20% hydroxylpropyl-β-cyclodextrin solution. Hydroxyurea was solubilized in PBS. Formulations were prepared fresh daily. Commencing on day 84 post human cell engraftment, mice were treated by oral gavage with either I-73, hydroxyurea or their respective vehicles, for a period of three weeks using either once daily (QD) or twice daily (BID) dosing regimens. Mice were monitored daily for body weight and condition. […]

The test system of assay [2] is HBG1 mRNA and HbF protein in bone marrow cells. The experiment in a line: Induction of fetal hemoglobin by hydroxyurea and I-73 in human CD34+ cell reconstituted immunodeficient mice, with analysis of synergistic effect. The class given is in vivo, NBSGW mice engrafted with human CD34+ cells. The procedure: The model employed for assessment of induction of fetal hemoglobin by I-73 and hydroxyurea involved the use of human stem cell-reconstituted immunodeficient mice. Specifically, three hundred thousand human CD34-positive cells from G-CSF-mobilized human peripheral blood […] (PBMCs) were injected into the tail veins of NOD.Cg-KitW-41J Tyr+Prkdcscid Il2rgtm1Wjl/ThomJ (NBSGW) mice (JAX Strain No. 026622) on day 0. Twelve weeks later, mice were checked for human cell engraftment by sampling PBMCs from blood taken from the tail vein and staining for expression of murine or human CD45 by flow cytometry. After removing from the study those mice having greater than 10% human cells or less than 1% human cells in their peripheral blood, the remaining mice were randomized into treatment groups based on the human cell percentage. Thirteen weeks post engraftment, treatment was initiated with either hydroxyurea, I-73, or a combination of both compounds. Hydroxyurea was formulated in PBS (pH 7.4) and I-73 was formulated in 5% Cremophor RH 40/20% hydroxypropyl-β-cyclodextrin (Crem-CD) daily. Mice received either PBS or hydroxyurea each morning and I-73 or Crem-CD each afternoon by oral gavage. After twenty days of daily treatment, the mice were euthanized and their bone marrow (femurs, tibia and critae) were individually collected for subsequent analysis.
Bone marrow cell pellets (total 500K cells) were lysed in 20 μL of RLT (QIAGEN, 79216) with 1×β-mercaptoethanol (Gibco, 21985-023) and H2O followed by hybridizations. Hybridizations were done in a total volume of 15 μL [3 μL of RNA lysate added to master mix of 12 μL probe A/B (purchased from IDT), capture probe/reporter probes (NanoString™, XT TagSet-24, 121000602), proteinase K (Fisher Scientific, E00491) and H2O suspended in hybridization buffer]. Samples were hybridized at 65° C. for 22 hr. Following hybridization, the tripartide complexes were purified, immobilized by nCounter Prep Station and imaged by Digital Analyzer (nCounter MAX/FLEX Analysis System), to generate digital counts of barcodes corresponding to each target in the multiplexed reaction. Labeled barcodes obtained from unamplified extracts were counted at 555 images or field of view (FOV). The barcode counts for each sample were recorded in Reporter Code Count (RCC) files that are imported into nSolver analysis software (provided with CodeSet by NS) for quality control evaluation.
To assess levels of fetal hemoglobin by AlphaLISA, cells (200 k bone marrow cells/well) were lysed by resuspending pellets in 200 μL of lysis buffer plus protease inhibitor cocktail (100×), mixed well and incubating at room temperature for 30 minutes on the plate shaker @300 RPMs. Samples were then diluted 1:10 in a new 96-well round bottom plate by taking 10 uL of lysate and adding 90 μL of AlphaLISA immunoassay buffer. To create the “reaction plate”, 20 μL of Acceptor Beads (50 ug/mL final concentration) was added to each well using a multi-channel pipet. 10 uL of diluted cell lysate was added to the wells and mixed well. 20 μL of AlphaLISA immunoassay buffer was added to each well. Biotinylated antibody (final concentration) was then added to each well. The reaction plate on then placed on a plate shaker at 300 rpm for one hour to incubate at room temperature. After the first incubation was complete, 50 μL of Donor Beads ([…] final concentration) was added to each well and mixed well, keeping the plate in the dark. The covered plate was placed on a shaker at 350 rpm for 30 minutes to incubate at room temperature. After incubation, all 100 uL in each to an AlphaPlate in the dark. Plates were read on a VictorNIVO using the “Alpha 96 Well” setting. Alpha reading was programmed as the default setting with emission at 700 ms and 575/110n. […]

Assay [3] relates to fetal hemoglobin protein (HbF) in human erythroid progenitor cells. The assay can be described thus: Humanized mouse model: HbF protein in bone marrow by AlphaLISA. The note with it: humanized mouse model, human erythroid progenitor cells, dose not given at this place. The class given is in vivo, NBSGW mice reconstituted with human CD34+ cells.
Excerpt: as §1, §2, §3, §4, §5, §6
In general terms: Bead proximity is the source of the signal in Alpha formats.

With `NC(=O)NO` [hydroxyurea], the “induction of fetal hemoglobin mRNA (HBG1)” value in assay [1] is given as “demonstrated to induce”; in assay [1] (listed as Hydroxyurea) it was “significantly induces”. Moreover, in assay [2] (HU 75 mg/kg alone, WLS ANOVA estimate), the “average increase of HbF % over vehicle” value is on record as 0.59. Besides, in assay [2] (alone or in combination with I-73), the “percentage of bone marrow cells expressing the erythroid cell marker glycophorin A” value is recorded as “dose-dependent increase”. Moreover, the “percentage of HbF protein by HPLC in GlyA-positive bone marrow cells” value in assay [2] (compared with vehicle treatment group, FIG. 7) is recorded as “significant increase”. In addition, the “percentage of bone marrow cells expressing human CD45” value in assay [2] (in vivo) was “did not alter”. Further, the “HbF level on a per erythroid progenitor (GlyA-positive) cell basis by AlphaLISA” value in assay [2] (treatment alone) was “less HbF induction”. Moreover, the “induction of fetal hemoglobin protein (HbF)” value in assay [3] is “demonstrated to induce”; in assay [3] (listed as Hydroxyurea), “significantly induces”.

The record behind these values is patent publication US20250163057A1, “DCN-1 MODULATING COMPOUNDS AND METHODS OF USE THEREOF” (Cellarity, Inc., priority 2023, published 2025).
